Patent publication US20150038438A1, “ANTIBACTERIAL COMPOUNDS AND METHODS FOR USE” (PTC THERAPEUTICS, INC., priority 2011, published 2015)
≈ marks a conversion by molar mass, not a printed value. Counter-ions that a name gives are not always drawn. Like-named read-outs stand apart in the source and are kept apart here.

Key:
Experiment in all cases: Antibacterial activity, microbroth dilution method (MIC)
[1] = tested on: Gram-positive Staphylococcus aureus (S. aureus) 29213; format: cell-based; details: Staphylococcus aureus, Gram-positive S. aureus 29213
Method in brief: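 Using broth microdilution, MIC endpoints (μg/mL) mark where visible growth no longer appears; the panel spans sensitive and control Gram-negative strains plus a Gram-positive strain.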

[2] = tested on: super sensitive Gram-negative Escherichia coli (E. coli) BAS849; format: cell-based; details: Escherichia coli, read-out: MIC, E. coli BAS849
Method in brief: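 Growth inhibition by microbroth dilution. MIC = lowest μg/mL with no visible growth. Strain 25922 is the control Gram-negative; BAS849 is hypersensitive.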

[3] = tested on: control Gram-negative E. coli 25922 strain; format: cell-based, Escherichia coli; details: Escherichia coli
Method in brief: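 Values are MICs (μg/mL): the smallest drug amount at which macroscopically visible bacterial growth is absent under assay conditions, from a microdilution method in broth.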

[4] = super sensitive Gram-negative E. coli BAS849, microbroth dilution

Structure (SMILES) | MIC [1] [mg/L] | MIC [2, 4] [mg/L] | MIC [3] [mg/L] | MIC [2] [mg/L]
CN(C)c1ccc2c(c1)OCCc1c-2[nH]c(=O)c(C(=O)O)c1O [Cpd 76, 9-(dimethylamino)-4-hydroxy-2-oxo-1,2,5,6-tetrahydrobenzo[2,3]oxepino[4,5-b]pyridine-3-carboxylic acid] | 12.5 to 150 (≈ 39.5 to 474 µM) | < 1 | 12.5 to 150 (≈ 39.5 to 474 µM) | –
CC1Oc2cc(N3CCCC3)ccc2-c2[nH]c(=O)c(C(=O)O)cc21 (stereo not drawn) [Cpd 74, 5-methyl-2-oxo-8-(pyrrolidin-1-yl)-2,5-dihydro-1H-chromeno[4,3-b]pyridine-3-carboxylic acid] | 12.5 to 150 (≈ 38.3 to 460 µM) | 1 to 3.5 (≈ 3.06 to 10.7 µM) | 12.5 to 150 (≈ 38.3 to 460 µM) | –
CCCCCCCNCc1cc2cc3c(cc2n1C)CCCc1c-3[nH]c(=O)c(C(=O)O)c1O.Cl [Cpd 139, 10-((heptylamino)methyl)-4-hydroxy-9-methyl-2-oxo-1,2,5,6,7,9-hexahydropyrido[3′,2′:6,7]cyclohepta[1,2-f]indole-3-carboxylic acid hydrochloride] | 1 to 3.5 | < 1 | 12.5 to 150 | –
CCCCCCCCCNCc1cc2cc3c(cc2n1C)CCCc1c-3[nH]c(=O)c(C(=O)O)c1O.Cl [Cpd 141, 4-hydroxy-9-methyl-10-((nonylamino)methyl)-2-oxo-1,2,5,6,7,9-hexahydropyrido[3′,2′:6,7]cyclohepta[1,2-f]indole-3-carboxylic acid hydrochloride] | 3.5 to 12.5 | 1 to 3.5 | 12.5 to 150 | –
CN(C)C(=O)CNCc1cc2cc3c(cc2n1C)CCCc1c-3[nH]c(=O)c(C(=O)O)c1O.Cl [Cpd 163, 10-(((2-(dimethylamino)-2-oxoethyl)amino)methyl)-4-hydroxy-9-methyl-2-oxo-1,2,5,6,7,9-hexahydropyrido[3′,2′:6,7]cyclohepta[1,2-f]indole-3-carboxylic acid hydrochloride] | 12.5 to 150 | < 1 | 3.5 to 12.5 | –
Cl.Cn1c(CN)cc2cc3c(cc21)CCCc1c-3[nH]c(=O)c(C(=O)O)c1O [Cpd 35, 10-(aminomethyl)-4-hydroxy-9-methyl-2-oxo-1,2,5,6,7,9-hexahydropyrido[3′,2′:6,7]cyclohepta[1,2-f]indole-3-carboxylic acid hydrochloride] | 3.5 to 12.5 | < 1 | 1 to 3.5 | –
Cl.O=C(O)c1c(O)c2c([nH]c1=O)-c1ccc(N3C[C@H]4CCCN[C@H]4C3)cc1CCC2 [Cpd 114, 9-((4aR,7aR)-hexahydro-1H-pyrrolo[3,4-b]pyridin-6(2H)-yl)-4-hydroxy-2-oxo-2,5,6,7-tetrahydro-1H-benzo[6,7]cyclohepta[1,2-b]pyridine-3-carboxylic acid hydrochloride] | 12.5 to 150 | 1 to 3.5 | 3.5 to 12.5 | –
CN(C)C1CCN(c2ccc3c(c2)NCCc2c-3[nH]c(=O)c(C(=O)O)c2O)C1.Cl (stereo not drawn) [Cpd 95, 9-(3-(dimethylamino)pyrrolidin-1-yl)-4-hydroxy-2-oxo-2,5,6,7-tetrahydro-1H-benzo[b]pyrido[2,3-d]azepine-3-carboxylic acid hydrochloride] | 12.5 to 150 | 3.5 to 12.5 | 3.5 to 12.5 | –
CCNCc1cc2cc3c(cc2n1C)Cc1c-3[nH]c(=O)c(C(=O)O)c1O.Cl [Cpd 19, 2-((ethylamino)methyl)-8-hydroxy-1-methyl-6-oxo-1,5,6,9-tetrahydropyrido[3′,2′:4,5]cyclopenta[1,2-f]indole-7-carboxylic acid hydrochloride] | 12.5 to 150 | 12.5 to 150 | 12.5 to 150 | –
CCCCCCNCc1cc2cc3c(cc2n1C)CCCc1c-3[nH]c(=O)c(C(=O)O)c1O.Cl [Cpd 138, 10-((hexylamino)methyl)-4-hydroxy-9-methyl-2-oxo-1,2,5,6,7,9-hexahydropyrido[3′,2′:6,7]cyclohepta[1,2-f]indole-3-carboxylic acid hydrochloride] | 1 to 3.5 | < 1 | 1 to 3.5 | –
CCN(CC)Cc1cc2cc3c(cc2n1C)CCCc1c-3[nH]c(=O)c(C(=O)O)c1O.Cl [Cpd 43, 10-((diethylamino)methyl)-4-hydroxy-9-methyl-2-oxo-1,2,5,6,7,9-hexahydropyrido[3′,2′:6,7]cyclohepta[1,2-f]indole-3-carboxylic acid hydrochloride] | 3.5 to 12.5 | < 1 | 1 to 3.5 | –
O=C(O)c1c(O)c2c([nH]c1=O)-c1ccc(N3CCCC3)cc1OCC2 [Cpd 77, 4-hydroxy-2-oxo-9-(pyrrolidin-1-yl)-1,2,5,6-tetrahydrobenzo[2,3]oxepino[4,5-b]pyridine-3-carboxylic acid] | 3.5 to 12.5 (≈ 10.2 to 36.5 µM) | < 1 | 12.5 to 150 (≈ 36.5 to 438 µM) | –
CCNCc1cc2cc3c(cc2n1C)NCCCc1c-3[nH]c(=O)c(C(=O)O)c1O.Cl [Cpd 104, 11-((ethylamino)methyl)-4-hydroxy-10-methyl-2-oxo-2,5,6,7,8,10-hexahydro-1H-pyrido[2′,3′:4,5]azocino[3,2-f]indole-3-carboxylic acid hydrochloride] | 12.5 to 150 | 1 to 3.5 | 3.5 to 12.5 | –
CC1Oc2cc(N3CCC(N(C)C)C3)ccc2-c2[nH]c(=O)c(C(=O)O)cc21.Cl (stereo not drawn) [Cpd 75, 8-(3-(dimethylamino)pyrrolidin-1-yl)-5-methyl-2-oxo-2,5-dihydro-1H-chromeno[4,3-b]pyridine-3-carboxylic acid hydrochloride] | 12.5 to 150 | 12.5 to 150 | 12.5 to 150 | –
CNCc1cc2cc3c(cc2n1C)NCCc1c-3[nH]c(=O)c(C(=O)O)c1O.Cl [Cpd 99, 4-hydroxy-9-methyl-10-((methylamino)methyl)-2-oxo-1,2,5,6,7,9-hexahydropyrido[2′,3′:4,5]azepino[3,2-f]indole-3-carboxylic acid hydrochloride] | 12.5 to 150 | 1 to 3.5 | 12.5 to 150 | –
CCNCc1cc2cc3c(cc2n1C)C=CCc1c-3[nH]c(=O)c(C(=O)O)c1O.Cl [Cpd 69, 10-((ethylamino)methyl)-4-hydroxy-9-methyl-2-oxo-1,2,5,9-tetrahydropyrido[3′,2′:6,7]cyclohepta[1,2-f]indole-3-carboxylic acid hydrochloride] | 12.5 to 150 | < 1 | < 1 | –
Cl.Cl.Cn1c(CNCCN2CCCC2)cc2cc3c(cc21)CCCc1c-3[nH]c(=O)c(C(=O)O)c1O [Cpd 152, 4-hydroxy-9-methyl-2-oxo-10-(((2-(pyrrolidin-1-yl)ethyl)amino)methyl)-1,2,5,6,7,9-hexahydropyrido[3′,2′:6,7]cyclohepta[1,2-f]indole-3-carboxylic acid dihydrochloride] | 12.5 to 150 | < 1 | 3.5 to 12.5 | –
CNCc1cc2cc3c(cc2n1C)CCCc1cc(C(=O)O)c(=O)[nH]c1-3.Cl [Cpd 53, 9-methyl-10-((methylamino)methyl)-2-oxo-1,2,5,6,7,9-hexahydropyrido[3′,2′:6,7]cyclohepta[1,2-f]indole-3-carboxylic acid hydrochloride] | 12.5 to 150 | < 1 | 1 to 3.5 | –
Cn1c2c(c(O)c(C(=O)O)c1=O)CC=Cc1cc3c(ccn3C)cc1-2 [Cpd 131, 4-hydroxy-1,9-dimethyl-2-oxo-1,2,5,9-tetrahydropyrido[3′,2′:6,7]cyclohepta[1,2-f]indole-3-carboxylic acid] | 3.5 to 12.5 (≈ 10.4 to 37.2 µM) | < 1 | 12.5 to 150 (≈ 37.2 to 446 µM) | –
CNCCNCc1cc2cc3c(cc2n1C)OCCc1c-3[nH]c(=O)c(C(=O)O)c1O.Cl.Cl [Cpd 181, 4-hydroxy-9-methyl-10-(((2-(methylamino)ethyl)amino)methyl)-2-oxo-2,5,6,9-tetrahydro-1H-pyrido[2′,3′:4,5]oxepino[3,2-f]indole-3-carboxylic acid dihydrochloride] | 12.5 to 150 | 12.5 to 150 | 12.5 to 150 | –
CC1CCc2cc(N3C[C@@H]4[C@@H](N)[C@@H]4C3)ccc2-c2[nH]c(=O)c(C(=O)O)c(O)c21 (stereo partly drawn) [Cpd 13, 9-((cis,cis)-6-amino-3-azabicyclo[3.1.0]hexan-3-yl)-4-hydroxy-5-methyl-2-oxo-2,5,6,7-tetrahydro-1H-benzo[6,7]cyclohepta[1,2-b]pyridine-3-carboxylic acid hydrochloride] | 3.5 to 12.5 | < 1 | 1 to 3.5 | –
CCNCc1cc2cc3c(cc2n1C)CCC(C)c1c-3[nH]c(=O)c(C(=O)O)c1O.Cl (stereo not drawn) [Cpd 67, 10-((ethylamino)methyl)-4-hydroxy-5,9-dimethyl-2-oxo-1,2,5,6,7,9-hexahydropyrido[3′,2′:6,7]cyclohepta[1,2-f]indole-3-carboxylic acid hydrochloride] | 12.5 to 150 | < 1 | 1 to 3.5 | –
O=C(O)c1c(O)c2c([nH]c1=O)-c1ccc(N3C[C@@H]4[C@H](C3)[C@H]4N(Cc3ccccc3)Cc3ccccc3)cc1OCC2 [Cpd 79, 9-((cis,cis)-6-(dibenzylamino)-3-azabicyclo[3.1.0]hexan-3-yl)-4-hydroxy-2-oxo-1,2,5,6-tetrahydrobenzo[2,3]oxepino[4,5-b]pyridine-3-carboxylic acid trifluoroacetate] | 12.5 to 150 | – | 12.5 to 150 | 12.5 to 150
CCNCc1cc2cc3c(cc2n1C)OCCc1c-3[nH]c(=O)c(C(=O)O)c1O.Cl [Cpd 89, 10-((ethylamino)methyl)-4-hydroxy-9-methyl-2-oxo-2,5,6,9-tetrahydro-1H-pyrido[2′,3′:4,5]oxepino[3,2-f]indole-3-carboxylic acid hydrochloride] | 12.5 to 150 | < 1 | < 1 | –
Cl.O=C(O)c1c(O)c2c([nH]c1=O)-c1ccc(N3CCCNCC3)cc1CCC2 [Cpd 111, 9-(1,4-diazepan-1-yl)-4-hydroxy-2-oxo-2,5,6,7-tetrahydro-1H-benzo[6,7]cyclohepta[1,2-b]pyridine-3-carboxylic acid hydrochloride] | 12.5 to 150 | 1 to 3.5 | 12.5 to 150 | –
